Measured values from article PMC8565778, “Evaluation of health benefits of sea lamprey (Petromyzon marinus) isolates using in vitro antiinflammatory and antioxidant assays” (PLoS ONE, 2021).

Experiments:
[1] = target: T1, COX-2 (cyclooxygenase enzyme-2) (Homo sapiens, UniProt P35354); assay: biochemical; design: In vitro cyclooxygenase (COX-1 and COX-2) enzyme inhibition assay, percent inhibition; conditions: read-out: % inhibition
T1 construct: gene PTGS2
T1 sequence (P35354 18-604): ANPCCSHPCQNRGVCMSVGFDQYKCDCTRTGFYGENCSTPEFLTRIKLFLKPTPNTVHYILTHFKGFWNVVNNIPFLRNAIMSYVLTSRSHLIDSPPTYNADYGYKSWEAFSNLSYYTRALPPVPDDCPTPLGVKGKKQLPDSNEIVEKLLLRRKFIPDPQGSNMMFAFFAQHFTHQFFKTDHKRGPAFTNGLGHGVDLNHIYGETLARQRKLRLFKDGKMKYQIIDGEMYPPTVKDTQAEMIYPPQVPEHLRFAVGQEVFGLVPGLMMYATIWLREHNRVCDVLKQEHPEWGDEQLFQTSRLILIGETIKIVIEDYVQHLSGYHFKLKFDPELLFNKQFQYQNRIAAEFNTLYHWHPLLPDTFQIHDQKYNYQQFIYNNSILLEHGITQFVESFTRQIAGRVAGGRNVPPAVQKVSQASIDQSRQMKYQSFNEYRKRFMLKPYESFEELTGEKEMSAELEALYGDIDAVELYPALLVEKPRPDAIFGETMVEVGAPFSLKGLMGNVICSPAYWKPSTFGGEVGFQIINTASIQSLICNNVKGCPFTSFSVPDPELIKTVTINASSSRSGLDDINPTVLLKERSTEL

[2] = target: T2, COX-1 (cyclooxygenase enzyme-1) (Ovis aries, UniProt P05979); assay: biochemical; design: In vitro cyclooxygenase (COX-1 and COX-2) enzyme inhibition assay, percent inhibition; conditions: read-out: % inhibition
T2 construct: gene PTGS1
T2 sequence (P05979 25-600): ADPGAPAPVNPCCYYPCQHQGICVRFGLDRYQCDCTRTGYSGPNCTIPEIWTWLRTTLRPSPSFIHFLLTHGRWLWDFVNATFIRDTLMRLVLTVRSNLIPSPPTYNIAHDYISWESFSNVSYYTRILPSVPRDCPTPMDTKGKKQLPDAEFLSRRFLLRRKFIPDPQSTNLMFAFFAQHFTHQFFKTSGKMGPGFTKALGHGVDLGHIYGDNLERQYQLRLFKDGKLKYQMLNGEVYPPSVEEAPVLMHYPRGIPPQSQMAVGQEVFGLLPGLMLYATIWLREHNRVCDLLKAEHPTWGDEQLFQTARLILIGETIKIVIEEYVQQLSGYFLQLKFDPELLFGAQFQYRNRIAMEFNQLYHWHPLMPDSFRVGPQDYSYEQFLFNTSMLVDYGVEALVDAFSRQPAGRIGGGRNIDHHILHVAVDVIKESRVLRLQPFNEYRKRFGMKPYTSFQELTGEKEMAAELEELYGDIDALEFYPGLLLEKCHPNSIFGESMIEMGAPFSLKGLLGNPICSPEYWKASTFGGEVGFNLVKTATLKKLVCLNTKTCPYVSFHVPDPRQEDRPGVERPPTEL
Procedure: (see S1 File for experimental details). To evaluate the health-beneficial activity of the sea lamprey compounds, we included all isolates of sea lamprey extract for the evaluation of in vitro antiinflammatory and antioxidant activities. […] (S1 File). […] Antiinflammatory activities of arginine, tyrosine, tryptophan, asparagine and inosine were assayed at 50 μg/mL concentration.

[3] = design: Fe2+-induced liposome lipid peroxidation; per cent inhibition measured as loss of fluorescent probe signal; conditions: large unilamellar vesicles; LPO (lipid peroxidation of large unilamellar liposomes, Fe2+-initiated); 25 ug/mL; inhibitor
Procedure: Pure compounds and positive controls were assayed for LPO inhibitory activities according to published procedures from our laboratory (see S1 File for experimental details). The antioxidant assay, the lipid peroxidation inhibitory (LPO) assay, used in this study measures free radical scavenging capability of pure compounds and extracts. In this assay, peroxidation of the lipid was initiated by the addition of Fe^2+ resulting in the generation of radicals, which cause the peroxidation of LUV and in turn the fluorescent probes embedded in it. The loss of fluorescent intensity in the assay indicates the oxidative damage to the lipid component of the LUV [11–15, 21] (S1 File). At 25 μg/mL concentration, cholesteryl palmitate, cholesteryl oleate, cholesteryl eicosapentaenoate and cholesteryl arachidonate inhibited LPO by 38, 60, 72 and 82%, respectively (Table 2) (Fig S in S1 File). The most abundant steroidal compound in sea lamprey was cholesterol and it lacked LPO inhibitory activity. Antioxidant activity profiles of the cholesterol esters were like its antiinflammatory profiles. That is, an increase in chain length and unsaturation increased the LPO activity. Majority of the lipophilic fraction of the sea lamprey extract consisted of glycerides and free fatty acids.

Row | inhibition at 25 µg/mL [1] | inhibition at 25 µg/mL [2] | inhibition at 108 µg/mL [1] | Compound | % inhibition [3]
1 | 10 ± 1.4% | 11.7 ± 1.8% | – | Nc1[nH]cnc2ncnc1-2 [Adenine] | –
2 | 14.7 ± 0.8% | 16.6 ± 1.1% | – | Nc1ncnc2c1ncn2[C@@H]1O[C@H](CO)[C@@H](O)[C@H]1O [Adenosine] | –
3 | – | – | – | N[C@@H](CO)C(=O)O [compound 32, Serine] | 29.0 ± 1.4%
4 | 4.94 ± 2.4% | 2.92 ± 1.4% | – | CC(C)CCC[C@@H](C)[C@H]1CC[C@H]2[C@@H]3CC=C4C[C@@H](O)CC[C@]4(C)[C@H]3CC[C@]12C [Cholesterol] | –
5 | – | – | – | CC(C)C(=O)C(=O)O [compound 44, α-Ketoisovaleric acid] | 15.5 ± 0.7%
6 | – | – | – | N[C@@H](CS)C(=O)O [compound 30, Cysteine] | 47.0 ± 1.4%
7 | 31.1 ± 2.8% | 45.9 ± 0.5% | – | CCCCCCCC/C=C\CCCCCCCC(=O)O[C@H]1CC[C@@]2(C)C(=CC[C@H]3[C@@H]4CC[C@H]([C@H](C)CCCC(C)C)[C@@]4(C)CC[C@@H]32)C1 [Cholesteryl oleate^#] | –
8 | 11.5 ± 1.3% | 15.6 ± 1.7% | – | N[C@@H](Cc1ccccc1)C(=O)O [Phenylalanine] | –
9 | – | – | – | C[C@@H](O)[C@H](N)C(=O)O [compound 26, Threonine] | 45.0 ± 1.4%
10 | 13.8 ± 2.4% | 32.2 ± 1.9% | – | N[C@@H](CCC(=O)O)C(=O)O [Glutamic acid] | –
11 | 5.82 ± 0.4% | 10.9 ± 1.4% | – | O=c1[nH]cnc2nc[nH]c12 [Hypoxanthine] | –
12 | 5.82 ± 2.9% | 19.4 ± 1.4% | – | C[C@@H](O)[C@H](N)C(=O)O [Threonine] | –
13 | – | – | – | O=c1[nH]cnc2nc[nH]c12 [compound 38, Hypoxanthine] | 24.5 ± 0.7%
14 | 9.65 ± 1.3% | 12.9 ± 3.5% | – | N[C@@H](CS)C(=O)O [Cysteine] | –
15 | 4.89 ± 3.9% | 18.2 ± 1.3% | – | CC(C)C[C@H](N)C(=O)O [Leucine] | –
16 | 4.36 ± 0.4% | 15.2 ± 1.5% | – | CSCC[C@H](N)C(=O)O [Methionine] | –
17 | 21.8 ± 2.4% | 37.2 ± 1.1% | – | N[C@@H](Cc1ccc(O)cc1)C(=O)O [Tyrosine] | –
18 | – | – | – | CCCCCCCCCCCCCCCC(=O)O[C@H]1CC[C@@]2(C)C(=CC[C@H]3[C@@H]4CC[C@H]([C@H](C)CCCC(C)C)[C@@]4(C)CC[C@@H]32)C1 [compound 8, Cholesteryl palmitate^#] | 38.0 ± 1.4%
19 | 4.37 ± 0.6% | 12.7 ± 3.8% | – | O=c1[nH]c(=O)c2nc[nH]c2[nH]1 [Xanthine] | –
20 | 7.8 ± 0.8% | 9.48 ± 2.9% | – | CC(=O)C(=O)O [Pyruvic acid] | –

Row | inhibition at 25 µg/mL [1] | inhibition at 25 µg/mL [2] | inhibition at 108 µg/mL [1] | Compound | % inhibition [3]
21 | 8.33 ± 1.3% | 21.6 ± 0.9% | – | CC(C)[C@H](N)C(=O)O [Valine] | –
22 | 11.9 ± 1.9% | 29.7 ± 1.3% | – | N=C(N)NCCC[C@H](N)C(=O)O [Arginine] | –
23 | – | – | – | NC(=O)C[C@H](N)C(=O)O [compound 27, Asparagine] | 28.0 ± 1.4%
24 | – | – | – | O=C(O)C(O)Cc1ccccc1 (centres unmarked) [compound 48, 3-Phenyllactic acid] | 25.0 ± 1.4%
25 | 17.3 ± 0.9% | 26.8 ± 2.3% | – | NC(=O)C[C@H](N)C(=O)O [Asparagine] | –
26 | – | – | – | N[C@@H](Cc1ccccc1)C(=O)O [compound 22, Phenylalanine] | 44.0 ± 1.4%
27 | 4.37 ± 0.5% | 4.13 ± 0.6% | – | CCCC(=O)C(=O)O [α-Ketovaleric acid] | –
28 | – | – | – | O=c1[nH]cnc2c1ncn2[C@@H]1O[C@H](CO)[C@@H](O)[C@H]1O [compound 35, Inosine] | 16.5 ± 2.1%
29 | 4.23 ± 0.6% | 11.8 ± 0.6% | – | N[C@@H](CC(=O)O)C(=O)O [Aspartic acid] | –
30 | 9.65 ± 0.4% | 5.24 ± 0.3% | – | CCC(=O)C(=O)O [α-Ketobutyric acid] | –
31 | – | – | – | N[C@@H](Cc1ccc(O)cc1)C(=O)O [compound 20, Tyrosine] | 55.0 ± 1.4%
32 | 11.5 ± 1.6% | 4.42 ± 0.3% | – | O=C(O)C(O)Cc1ccccc1 (centres unmarked) [3-Phenyllactic acid] | –
33 | 2.91 ± 0.3% | 6.25 ± 2.4% | – | N[C@@H](CO)C(=O)O [Serine] | –
34 | – | – | – | NCC(=O)O [compound 29, Glycine] | 16.5 ± 0.7%
35 | – | – | – | Nc1[nH]cnc2ncnc1-2 [compound 36, Adenine] | 19.5 ± 0.7%
36 | 10.3 ± 1.4% | 16.9 ± 0.2% | – | NCCCCN [Putrescine] | –
37 | 3.03 ± 0.5% | 17.5 ± 1.9% | – | NCCCNCCCCNCCCN [Spermine] | –
38 | 10.5 ± 1.8% | 17.1 ± 2.1% | – | CC(C)C(=O)C(=O)O [α-Ketoisovaleric acid] | –
39 | 9.65 ± 1.3% | 13.3 ± 2.7% | – | CN(CC(=O)O)C(=N)N [Creatine] | –
40 | – | – | – | N[C@@H](Cc1c[nH]c2ccccc12)C(=O)O [compound 25, Tryptophan] | 57.5 ± 0.7%

Row | inhibition at 25 µg/mL [1] | inhibition at 25 µg/mL [2] | inhibition at 108 µg/mL [1] | Compound | % inhibition [3]
41 | – | – | – | N[C@@H](CCC(=O)O)C(=O)O [compound 23, Glutamic acid] | 46.0 ± 1.4%
42 | 9.92 ± 0.5% | 23.3 ± 0.6% | – | CC[C@H](C)[C@H](N)C(=O)O [Isoleucine] | –
43 | – | – | – | NCCCNCCCCNCCCN [compound 42, Spermine] | 16.5 ± 0.7%
44 | – | – | 29.8 ± 0.9% | CC(=O)Oc1ccccc1C(=O)O [compound 1, Aspirin] | –
45 | 7.14 ± 1.1% | 21.6 ± 2.4% | – | O=C(O)[C@@H]1CCCN1 [Proline] | –
46 | – | – | – | CC[C@H](C)[C@H](N)C(=O)O [compound 21, Isoleucine] | 17.5 ± 0.7%
47 | – | – | – | CC(=O)C(=O)O [compound 47, Pyruvic acid] | 23.5 ± 0.7%
48 | – | – | – | CCCC(=O)C(=O)O [compound 43, α-Ketovaleric acid] | 15.0 ± 1.4%
49 | – | – | – | N=C(N)NCCC[C@H](N)C(=O)O [compound 17, Arginine] | 22.0 ± 1.4%
50 | – | – | – | O=C(O)[C@@H]1CCCN1 [compound 31, Proline] | 17.0 ± 1.4%
51 | – | – | – | CC(C)C[C@H](N)C(=O)O [compound 19, Leucine] | 19.5 ± 0.7%
52 | 26.1 ± 0.9% | 35.8 ± 0.5% | – | O=c1[nH]cnc2c1ncn2[C@@H]1O[C@H](CO)[C@@H](O)[C@H]1O [Inosine] | –
53 | 19.6 ± 1.8% | 37.6 ± 0.8% | – | N[C@@H](Cc1c[nH]c2ccccc12)C(=O)O [Tryptophan] | –
54 | 7.01 ± 0.9% | 12.9 ± 1.4% | – | NCC(=O)O [Glycine] | –
55 | – | – | – | CCC(=O)C(=O)O [compound 45, α-Ketobutyric acid] | 16.5 ± 0.7%
56 | – | – | – | CC(C)[C@H](N)C(=O)O [compound 18, Valine] | 18.5 ± 0.7%
57 | – | – | – | NCCCCN [compound 41, Putrescine] | 17.0 ± 1.4%
58 | 12.3 ± 1.6% | 19.7 ± 1.5% | – | CC(O)CC(=O)O (stereo not drawn) [β-Hydroxybutyric acid] | –

Row | Compound | inhibition at 25 µg/mL [1] | inhibition at 25 µg/mL [2] | inhibition at 108 µg/mL [1] | % inhibition [3]
59 | CCCCCCCCCCCCCCCC(=O)O[C@H]1CC[C@@]2(C)C(=CC[C@H]3[C@@H]4CC[C@H]([C@H](C)CCCC(C)C)[C@@]4(C)CC[C@@H]32)C1 [Cholesteryl palmitate^#] | 17.7 ± 2.9% | 37.7 ± 2.4% | – | –
